Data: patent US6599878B2, “Superoxygenating blood substitutes based on hemoglobin and dihydropyidine compositions” (priority 1992, dated 2003)
Several values for one entry are separate records, joined by “and”; a condition that tells them apart may be missing. Equal entries are not always repeated. Marks after values point to notes of the source that are not given here.

Legend:
[1] = system: nitric oxide synthase; assay: L-NAME during Ab-HD pilot study; settings: dog, in vivo
Protocol: Approximately 6 mg/kg L-NAME was administered i.v. bolus during Ab-HD.

[2] = BAEE reversal of L-NAME effects in Ab-HD dogs; format: in vivo; settings: BAEE after L-NAME in AB-HD dogs
Text: With BAEE, the original hemodynamics of Ab-HD alone were expected to be evident, i.e. increased cardiac output.

[3] = BAEE during oxyHb-HD pilot study; format: in vivo, dog; settings: n = 3
Text: (§1) In another pilot study, we examined if infusion of a nitric oxide substrate (N-benzoyl-L-arginine ethyl ester, i.e. BAEE) would override the hypothesized NO scavenging by oxyHb and thereby mimic Ab-HD hemodynamics and cGMP production shown in Tables 8-11. While BAEE administration increased plasma cGMP levels and caused significant vasodilation as evidenced by the decreased mean arterial pressure, cardiac output was not increased (Table 12).

[4] = system: cyclic GMP; assay: BAEE during oxyHb-HD pilot study; format: in vivo, dog; settings: for cGMP: plasma
Text: as §1

[5] = Whole body oxygenation (Example I); format: in vivo, mongrel dogs; settings: for CaO2: arterial oxygen content
Protocol: (§2) Blood pH, PCO2, PO2 and Na^+, K^+ and Ca^++ concentrations were measured with a Nova Stat Profile 1 analyzer (Waltham, Mass.). Plasma colloid osmotic pressure (COP) was determined before and after hemodilution with a Wescor 4400 Colloid Osmometer (Logan, Utah). […] Hematocrit was determined volumetrically. Hemoglobin (gm %), methemoglobin (%) and percent oxygen saturation were measured with an Instrumentation Laboratories 482 CO-Oximeter (Lexington, Mass.). Hemoglobin oxygen content was measured with the co-oximeter and added to the dissolved oxygen (0.003×PO2) to give total blood oxygen content (vol %).
Whole body oxygen extraction ratio (O2 extr, %) was calculated from arteria-mixed venous oxygen content difference C(a−v)O2 divided by the arterial oxygen content (CaO2). Whole body oxygen consumption (WBVO2) in ml/minute was determined using the Fick equation, WBVO2=CO×C(a−v)O2 Oxygen delivery (DO2) in ml/minute was calculated from CaO2×CO.
Upon arrival in the laboratory, typically all dogs had hematocrits of 45 vol % or greater and filling pressures (LVEDP) of 5 mm Hg or less. Following cannulation all animals were hydrated with 5 mg % albumin to increase filling pressure (LVEDP) above 5 mm Hg and to bring hematocrit to near 40 vol %. Twelve dogs underwent isovolemic exchange of blood for 10 gm % hemoglobin to hematocrit 50% of baseline. […] The colloid pressure of 10 gm % hemoglobin and 8 gm % albumin (both about 40 Torr) is about twice that of dog plasma and after in vivo dilution would be expected to sustain plasma volumes at baseline values or greater.
(§3) Once MAP stabilized (≈5-10 min), hemodynamic measurements, blood gases and other samples were obtained.

[6] = system: cyclic GMP; assay: Plasma cyclic GMP and arterial pressure before and after hemodilution and SNP (Example II); format: in vivo, dog; settings: hemodilution alone, n = 5, mean ± sem
[7] = Blood gases, electrolytes, hemoglobin, colloid osmotic pressure and blood volume (Example I); format: in vivo, mongrel dogs; settings: for Plasma Hb: anesthetized dogs
Protocol: as §2
Total blood volume was computed from plasma volume (indicator dilution of iodinated I^125-albumin, Mallinckrodt Medical, Inc., St. Louis, Mo.) and whole body hematocrit.
Following cannulation all animals were hydrated with 5 mg % albumin to increase filling pressure (LVEDP) above 5 mm Hg and to bring hematocrit to near 40 vol %. Twelve dogs underwent isovolemic exchange of blood for 10 gm % hemoglobin to hematocrit 50% of baseline.
as §3

[8] = Regional blood flows by radioactive microspheres (Example I); format: in vivo, mongrel dogs; settings: dogs, hematocrit 50% of control
Protocol: Briefly, prior to injection, microspheres labeled with Sc^46, Sr^85, Sn^113 or Ce^141 were vortexed and sonicated. Approximately 30 microcuries (1×10^6 microspheres) were injected into the left atrium of a dog. Beginning with each microsphere injection, duplicate reference blood samples were collected at a constant rate (6 ml min^−1) for 3 minutes from the femoral PE 90 catheters. Radioactivity of the duplicate samples differed by less than 10%, indicating adequate mixing of the microspheres in the left ventricular output. To maintain isovolemic conditions during reference sampling, a 5% albumin solution was infused simultaneously.
After the final injection of microspheres, the heart was stopped by intravenous injection of potassium chloride. Skin and bone (rib) were sampled from a shaved area distal to the thoracotomy. Skeletal muscle samples were taken from the hindlimb, back, forelimb and head. The GI tract was excised from the esophageal sphincter to the anus. All mesentery and omentum were trimmed. The stomach was separated from the tract. These and all other organs were weighed. Multiple samples were taken from each organ and transferred to a tared counting tube.
The tissue and reference samples were weighed and analyzed for radioactivity with a gamma scintillation counter equipped with a multichannel analyzer (Packard Instrument, Downers Grove, Ill.). Isotope separation was accomplished by standard techniques of gamma spectroscopy. Values for organ blood flows (BForgan) in ml min^−1 were calculated from the equation BForgan=ABF×(MC÷AC)×organ weight (g), where ABF is the rate of arterial reference sampling (ml/minute), MC is the microsphere radioactivity (counts min^−1 g^−1) in the tissue samples, and AC is the total microsphere radioactivity (counts/minute) in the arterial reference samples. The fractional distribution of cardiac output to each organ was computed from BForgan÷ΣBForgan, where ΣBForgan is the sum of all organ flows. Skeletal muscle, skin and bone weights were calculated as 40%, 9% and 8% of body weight, respectively.

[9] = Properties of the hemoglobin product and colloid solutions; format: physicochemical
Protocol: as §2

[10] = Systemic hemodynamics in anesthetized hemodiluted dogs (Example I); format: in vivo, mongrel dogs
Protocol: Twenty-four conditioned, heartworm-free male mongrel dogs (20 to 30 kg) were anesthetized with sodium pentobarbital (30 mg/kg i.v.) followed by an i.v. maintenance dose of 4 mg/kg/hour. After intubation of the trachea with a cuffed endotracheal tube, the dog was mechanically ventilated (Siemens 900D Servoventilator) with 100% oxygen, tidal volumes of 10 to 12 ml/kg and respiration at a rate to achieve normocarbia. […] Sodium bicarbonate was not administered. The body temperature of the dog was maintained at 39 C. with water-circulated heating pads.
The dog was placed supine and a polyethylene catheter (PE 200) was inserted into the thoracic aorta via the left femoral artery for measurement of blood pressure. Two small-bore (PE 90) heparin-filled catheters of different lengths were placed in the abdominal aorta via the right femoral artery to collect reference blood samples containing radioactive microspheres for measurement of regional blood flow. Wide-bore (PE 240) catheters were placed in the right femoral vein and in the right carotid artery, for isovolemic exchange transfusion and for the administration of intravenous fluids and collection of arterial blood samples. A 5 french thermodilution catheter was advanced into the pulmonary artery via the right external jugular vein for measurement of cardiac output and right atrial pressure. A Foley catheter was inserted into the bladder for urine collection.
Under fluoroscopy, a 5 french volume-conductance catheter (Mansfield Webster) was inserted via the left carotid artery across the aortic valve to the apex of the left ventricle to measure instantaneous volume.
The animal was then placed on its right side and paralyzed with doxacurium (0.05 mg/kg) to perform a left thoracotomy in the fourth intercostal space. The exposed lung was retracted with gauze. Five cm H2O positive end-expiratory pressure was instituted to prevent atelectasis. A small incision was made in the pericardium near the left atrial appendage. The appendage was protracted and a PE 90 catheter, for microsphere injection, inserted into the ventricle via pressure verification and then pulled back into the atrium. A 3 french micromanometer-tipped pressure catheter (Millar) was then inserted via the appendage into the left ventricle for pressure recording. Both catheters were secured with a ligature around the appendage and distally taped to the animal. The exposed thoracic surface was covered with plastic film to prevent evaporation.
Continuous measurements of heart rate (HR), pulsatile aortic pressure, mean aortic pressure (MAP), left ventricular peak pressure (LVPP), rate-of-change of LVPP (dP/dt), LV end diastolic pressure (LVEDP), LV volume, and right atrial pressure (RAP) were recorded on an analog thermal array recorder (Gould Model TA4000) and stored on a computerized data acquisition system (Halcom, Inc.) Cardiac output (CO) was measured in triplicate using a Spectramed Hemoprol computer. Systemic vascular resistance (SVR) was calculated from (MAP−RAP)÷CO. Systemic vascular hindrance (SVH) was calculated from SVR÷η, where η is the apparent viscosity of blood in centipoise (cp). At high flow rates (shear rates≈200 s^−1) assumed in the aorta, η is 4.0 cp for hematocrit (Hct) of 40 vol % and 2.1 cp for Hct of 20 vol %. Stroke volume was derived from CO÷HR. LV stroke work (LVSW) was calculated from (systolic AoP−LVEDP)×SV×0.0136.

[11] = In vivo test of hemoglobin product for common adverse effects during hemodilution; settings: anesthetized dog, hemodilution to hematocrit 50% of baseline
Protocol: The hemoglobin product was also tested in vivo on dogs for common adverse effects of therapeutic products which are administered intravascularly. The hemodilution protocol used and the physiologic tests performed are standard in the art and were similar to that described in Rabiner et al., J. Exp. Med., 86, 455-463 (1967); Sunder-Plassmann et al., supra; and Crystal et al., Anesth. Analg., 67, 211-218 (1988) Briefly, the hemoglobin product was infused into a venous access of an anesthetized dog with simultaneous withdrawal of arterial blood on a one-to-one basis at about 25 ml/minute until hematocrit was 50% of baseline (about 20 vol %). Tests for pyrogenic effects, hypotensive effects, arrhythmia, inotropic effects, bradycardia, tachycardia, hypovolemia, dysoria, and coagulopathy were all negative.

[12] = system: cyclic GMP; assay: Regional interstitial cGMP by microdialysis; format: in vivo, dog; settings: during hemodilution alone, n = 4
Text: An in vivo method that is based on direct microdialysis of the organ tissue was used to examine the regional interstitial production of cGMP. The microdialysis technique uses a small dialysis fiber (250 μm diameter) that is inserted into the tissue and perfused to sample extracellular metabolites.

[13] = BAEE 400 μg/kg/min during oxyHb-HD, n = 3
[14] = anesthetized dogs, hemodilution to hematocrit 50% of baseline

## COC(=O)[C@@H](N)CCCNC(=N)N[N+](=O)[O-] [L-NAME, L-nitro arginine methyl ester]
[1]
  CO: 2413 ± 1721+ ml/min
  MAP: 152 ± 8*+ mm Hg
  cGMP: 17.38 ± 0.98*+ μg/ml

## CCOC(=O)[C@H](CCCNC(=N)N)NC(=O)c1ccccc1 [BAEE, N-benzoyl-L-arginine ethyl ester, reference compound]
[2]
  reversal of cardiac output to the high levels of Ab-HD alone: not reversed
[3]; BAEE 400 μg/kg/min during oxyHb-HD
  CO: 2376 ± 233 mL/min
[4]; [13]
  MAP: 108 ± 8*+ mm Hg
  cGMP: 24.44 ± 1.05*+ μg/ml

## HbHD: Purified canine hemoglobin (10 gm %) used for isovolemic hemodilution
[5]; anesthetized dogs
  C(a-v)O2: 6.1 ml/100 ml
  CvO2: 8.8 ml/100 ml
  CaO2: 14.9 ml/100 ml
[5]; anesthetized dogs, listed as hemoglobin
  CaO2: 14.9±0.4 ml/100 ml
[5]; oxygen delivery = CaO2 x CO
  DO2: 302 mL/min
[5]; vs control
  decrease in oxygen delivery: 30%
  reduction in arterial oxygen content: 24%
[5]; whole body oxygen consumption
  WBVO2: 125 mL/min
[5]; whole body oxygen extraction ratio
  O2 extr: 45%
[6]
  MAP: 142 ± 6 mm Hg
[6]; listed as oxyHb-HD
  Plasma cGMP: 17.22 ± 1.02*+ μg/ml and 17.22 ± 1.02 μg/ml
[7]
  Plasma Hb: 4.6 g/100 ml
[7]; listed as hemoglobin
  Plasma Hb: 4.6 g/100 ml
[7]; dog, in vivo
  plasma hemoglobin as share of total whole blood hemoglobin concentration: approximately 40%
[7]; hemoglobinuria
  hemoglobin excreted in urine, share of the approximately 100 grams infused: less than 1%
[8]
  Organ blood flow, change from control: Bone: No
  Organ blood flow, change from control: Brain: Yes (+40%)
  Organ blood flow, change from control: Gastrointestinal: No
  Organ blood flow, change from control: Liver: No
  Organ blood flow, change from control: Lung: Yes (−53%)
  Organ blood flow, change from control: Myocardium: Yes (+80%)
  Organ blood flow, change from control: Pancreas: No
  Organ blood flow, change from control: Renal: No
  Organ blood flow, change from control: Skeletal muscle: No
  Organ blood flow, change from control: Skin: No
  Organ blood flow, change from control: Spleen: Yes (−39%)
  Organ blood flow, change from control: Total (= Cardiac output): No
[3]; oxyHb-HD alone
  CO: 2880 ± 245 mL/min
[4]; oxyHb-HD alone, n = 3
  MAP: 146 ± 5 mm Hg
[4]; oxyHb-HD alone, n = 3, mean ± sem
  cGMP: 17.80 ± 0.95 µg/mL
[9]
  % carboxyhemoglobin: <0.5%
  % methemoglobin: <1%
  Ca^+: 1.2 mmol/L
  Colloid osmotic pressure: 40 mm Hg
  Davenport diagram: Normal
  Haldane effect: Normal
  Hill plot: Normal
  K: 3.4 mmol/L
  Na: 150 mmol/L
  Osmolality: 310 mOsmol/kg
  Oxygen capacity: 13.5 vol %
  Oxygen content: 13.5 vol %
  PCO2: 15 mm Hg
  PO2: 200 mm Hg
  Total Hb concentration: 10 gm %
  Viscosity: ≈2.0 cp
  pH: 6.9
[9]; 8% albumin, 10% hemoglobin, Wescor 4400 Colloid Osmometer
  COP of colloid solution: 40.8±1.0 mm Hg
[9]; pH 7.2-7.4
  Bohr coefficient: 0.54 (pH 7.2-7.4)
[9]; pH 7.4
  P50: 24 mm Hg (pH 7.4)
[10]; [14]
  LV Elastance: 4.91 mm Hg ml
  LV dP/dtmax: 1713 mm Hg/sec
  LVPP: 154 mm Hg
  LVSW: 29.2 g m/beat
  MAP: 136 mm Hg
  heart rate: 153 beats/min
[10]; dog, in vivo
  mean aortic, right atrial and LV end-diastolic (systemic) pressures vs control: not changed
  systemic vascular resistance vs control: not changed
[10]; vs control
  effect on cardiac output and stroke volume: did not change
  increase in systemic vascular hindrance: ~100%
[11]
  Tests for pyrogenic effects, hypotensive effects, arrhythmia, inotropic effects, bradycardia, tachycardia, hypovolemia, dysoria, and coagulopathy: negative
blood, n = 6
  Cyanide: 0.13 ± 0.03 mg/L
dog, in vivo
  Lactate: 2.2 ± 0.3 meq/L
[12]; MU
  Cyclic GMP levels in regional interstitial microdialysate, MU: 17.98* μg/ml
[12]; bone
  Cyclic GMP levels in regional interstitial microdialysate, BO: 18.64* μg/ml
[12]; brain
  Cyclic GMP levels in regional interstitial microdialysate, BR: 19.94* μg/ml
[12]; gastrointestinal tract
  Cyclic GMP levels in regional interstitial microdialysate, GI: 12.68* μg/ml
[12]; heart
  Cyclic GMP levels in regional interstitial microdialysate, HE: 14.44* μg/ml
[12]; liver
  Cyclic GMP levels in regional interstitial microdialysate, LI: 20.34* μg/ml
[12]; lung
  Cyclic GMP levels in regional interstitial microdialysate, LU: 18.74* μg/ml
[12]; spleen
  Cyclic GMP levels in regional interstitial microdialysate, SP: 16.40* μg/ml
